From US20240409536A1, “COMPOUNDS AND METHODS FOR MODULATING SPLICING” (REMIX THERAPEUTICS INC., priority 2021, published 2024)
Where a name gives a salt, the structure may show the parent alone.

What was measured:
MYB mRNA = test: Gene panel canonical junction qPCR assay, MYB CJ mRNA decrease; format: cell-based, human; conditions: Homo sapiens, canonical junction qPCR, read-out: MYB IC50 (decrease in CJ mRNA levels)
Procedure, shortened: (§1)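 A673 or K562 cells were treated with compound, and lysates underwent cDNA synthesis and qPCR with a CY5 5′-nuclease probe or primer spanning the canonical exon junction. ΔCt versus GAPDH, GUSB or PPIA was normalized to DMSO (2^(−ΔΔCt)), converted to percentage response and fitted four-parameter logistic for IC50.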

HiBiT-tagged HTT protein = test: HiBiT protein abundance assay, HTT (K562 HiBiT knock-in cells); format: cell-based, human; conditions: 24 hours
Procedure, shortened: (§2)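 K562 cells with endogenous HiBiT knock-in tag, 10-point 3-fold dilutions (top 10 μM final, ≤0.25% DMSO), 24 h at 37 °C. Lytic Nano-Glo HiBiT luminescence, normalized to DMSO and unmodified K562 baselines; IC50 is concentration giving 50% protein abundance from four-parameter fit.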

HiBiT-tagged MYB protein = test: HiBiT protein abundance assay, MYB (K562 HiBiT knock-in cells); format: cell-based, human; conditions: 24 hours
Procedure, shortened: as §2

SMN2 mRNA = test: Gene panel canonical junction qPCR assay, SMN2 CJ mRNA decrease; format: cell-based, human; conditions: Homo sapiens, canonical junction qPCR, read-out: SMN2 IC50 (decrease in CJ mRNA levels)
Procedure, shortened: as §1

HTT mRNA = test: Gene panel canonical junction qPCR assay, HTT CJ mRNA decrease; format: cell-based, human; conditions: Homo sapiens, canonical junction qPCR, read-out: HTT IC50 (decrease in CJ mRNA levels)
Procedure, shortened: as §1

K562 cells = test: Cell Titer Glo 2.0 cell viability assay in K562 cells; conditions: 72 hours
Procedure: Compounds described herein were screened for toxicity in K562 (human chronic myelogenous leukemia) and SH-SY5Y (human neuroblastoma) cells using a Cell Titer Glo 2.0 assay.
Cells were plated at 500 cells/well (K562 cells) in 45 μL of IMDM supplemented with 10% FBS in a 384-well opaque plate. Wells containing only medium were used as a blank control. Test compounds (e.g., compounds of Formula (I), (II), or (III)) were first serially diluted in DMSO then diluted 1:100 with IMDM+10% FBS. The final concentration of DMSO was 0.1% in each well. The cells were incubated for 72 hours at 37° C. and 5% CO2 before assaying with Cell Titer Glo 2.0 reagent.

Target C mRNA = test: Gene panel canonical junction qPCR assay, Target C CJ mRNA decrease; format: cell-based; conditions: Homo sapiens, canonical junction qPCR, read-out: Target C IC50 (decrease in CJ mRNA levels)
Procedure, shortened: as §1

Row | Structure (SMILES) | IC50 (MYB mRNA) | IC50 (HiBiT-tagged HTT protein) | IC50 (HiBiT-tagged MYB protein) | IC50 (SMN2 mRNA) | IC50 (HTT mRNA) | Viability (K562 cells) | IC50 (Target C mRNA)
1 | Cc1cn2cc(NC(=O)c3ccc(N4CCN(C)[C@H](C)C4)c4ccnnc34)cc(F)c2n1 [Compound 149] | < 0.1 µM | 1 to 10 µM | < 0.1 µM | < 0.1 µM | 1 to 10 µM | B (B represents 100-1000 nM) | 1 to 10 µM
2 | Cc1cn2cc(NC(=O)c3ccc(N4CCN(C)[C@@H](C)C4)c4ccnnc34)cc(F)c2n1 [Compound 150] | 0.1 to 1 µM | 1 to 10 µM | 0.1 to 1 µM | < 0.1 µM | 1 to 10 µM | B (B represents 100-1000 nM) | 1 to 10 µM
3 | CC[C@@H]1CN(c2ccc(C(=O)Nc3cc(F)c4nc(C)cn4c3)c3nnccc23)CCN1 [Compound 151] | < 0.1 µM | 1 to 10 µM | < 0.1 µM | < 0.1 µM | 1 to 10 µM | B (B represents 100-1000 nM) | > 10 µM
4 | CC[C@H]1CN(c2ccc(C(=O)Nc3cc(F)c4nc(C)cn4c3)c3nnccc23)CCN1 [Compound 152] | 0.1 to 1 µM | 1 to 10 µM | < 0.1 µM | < 0.1 µM | 1 to 10 µM | B (B represents 100-1000 nM) | > 10 µM
5 | Cc1cn2cc(NC(=O)c3ccc(N4CCN5CCC[C@@H]5C4)c4ccnnc34)cc(F)c2n1 [Compound 153] | < 0.1 µM | 1 to 10 µM | < 0.1 µM | < 0.1 µM | 0.1 to 1 µM | B (B represents 100-1000 nM) | 1 to 10 µM
6 | Cc1cn2cc(NC(=O)c3ccc(N4CCN5CCC[C@H]5C4)c4ccnnc34)cc(F)c2n1 [Compound 154] | 0.1 to 1 µM | 1 to 10 µM | < 0.1 µM | < 0.1 µM | 1 to 10 µM | B (B represents 100-1000 nM) | 1 to 10 µM
7 | Cc1cn2cc(NC(=O)c3ccc(N4C[C@H]5C[C@@H]4C5N(C)C)c4ccnnc34)cc(F)c2n1 (stereo partly shown) [Compound 155] | 1 to 10 µM | > 10 µM | > 10 µM | 0.1 to 1 µM | > 10 µM | B (B represents 100-1000 nM) | > 10 µM
8 | Cc1cc2c(N3CCNCC3)ccc(C(=O)Nc3cc(F)c4nc(C)cn4c3)c2nn1 [Compound 159] | < 0.1 µM | 0.1 to 1 µM | < 0.1 µM | < 0.1 µM | 0.1 to 1 µM | A (A represents <100 nM) | 1 to 10 µM
9 | Cc1cn2cc(NC(=O)c3ccc(N4C[C@@H](C)N[C@@H](C)C4)c4ccnnc34)cc(F)c2n1 [Compound 161, 5-(3,5-dimethylpiperazin-1-yl)-N-{8-fluoro-2-methylimidazo[1,2-a]pyridin-6-yl}cinnoline-8-carboxamide 2,2,2-trifluoroacetate] | < 0.1 µM | 1 to 10 µM | < 0.1 µM | < 0.1 µM | 1 to 10 µM | B (B represents 100-1000 nM) | 1 to 10 µM
10 | Cc1ccc2c(N3CCNCC3)ccc(C(=O)Nc3cc(F)c4nc(C)cn4c3)c2n1 [Compound 162, N-{8-fluoro-2-methylimidazo[1,2-a]pyridin-6-yl}-2-methyl-5-(piperazin-1-yl)quinoline-8-carboxam-ide, trifluoroacetic acid] | < 0.1 µM | 0.1 to 1 µM | < 0.1 µM | < 0.1 µM | 1 to 10 µM | B (B represents 100-1000 nM) | 1 to 10 µM
11 | CC(=O)c1cc(NC(=O)c2ccc(N3CCNCC3)c3ccnnc23)cn2cc(C)nc12 [Compound 163, N-{8-acetyl-2-methylimidazo[1,2-a]pyridin-6-yl}-5-(piperazin-1-yl)cinnoline-8-carboxamide] | 1 to 10 µM | > 10 µM | 1 to 10 µM | < 0.1 µM | > 10 µM | C (C represents 1000-9999 nM) | > 10 µM
12 | Cc1cn2cc(NC(=O)c3ccc(N4CCNCC4)c4ccnnc34)nc(C)c2n1 [Compound 164, N-{2,8-dimethylimidazo[1,2-a]pyrazin-6-yl}-5-(piperazin-1-yl)cinnoline-8-carboxamide 2,2,2-trifluoroacetate] | 0.1 to 1 µM | 1 to 10 µM | 0.1 to 1 µM | < 0.1 µM | > 10 µM | B (B represents 100-1000 nM) | > 10 µM
13 | Cc1cn2cc(NC(=O)c3ccc(N4CCNCC4)c4cccnc34)cc(F)c2n1 [Compound 165, N-{8-fluoro-2-methylimidazo[1,2-a]pyridin-6-yl}-5-(piperazin-1-yl)quinoline-8-carboxamide] | < 0.1 µM | 0.1 to 1 µM | < 0.1 µM | < 0.1 µM | 1 to 10 µM | A (A represents <100 nM) | 1 to 10 µM
14 | Cc1cn2cc(NC(=O)c3ccc(N4CCNCC4)c4nnccc34)cc(F)c2n1 [Compound 166, N-(8-fluoro-2-methylimidazo[1,2-a]pyridin-6-yl)-8-(piperazin-1-yl)cinnoline-5-carboxamide 2,2,2-trifluoroacetate] | > 10 µM | > 10 µM | > 10 µM | > 10 µM | > 10 µM | D (D represents greater than 10 μM in K562 cells) | > 10 µM
15 | Cc1cn2cc(NC(=O)c3ccc(N4CCNCC4)c4ccnnc34)cc(C#N)c2n1 [Compound 167, N-{8-cyano-2-methylimidazo[1,2-a]pyridin-6-yl}-5-(piperazin-1-yl)cinnoline-8-carboxamide trifluoroacetic acid salt] | 0.1 to 1 µM | 1 to 10 µM | 0.1 to 1 µM | < 0.1 µM | 1 to 10 µM | B (B represents 100-1000 nM) | > 10 µM
16 | CCc1cc(NC(=O)c2ccc(N3CCNCC3)c3ccnnc23)nn2cc(C)nc12 [Compound 168, N-{8-ethyl-2-methylimidazo[1,2-b]pyridazin-6-yl}-5-(piperazin-1-yl)cinnoline-8-carboxamide trifluoroacetic acid salt] | 1 to 10 µM | > 10 µM | 1 to 10 µM | 0.1 to 1 µM | > 10 µM | C (C represents 1000-9999 nM) | > 10 µM
17 | COc1ccc2c(N3CCNCC3)ccc(C(=O)Nc3cc(F)c4nc(C)cn4c3)c2n1 [Compound 169, N-{8-fluoro-2-methylimidazo[1,2-a]pyridin-6-yl}-2-methoxy-5-(piperazin-1-yl)quinoline-8-carboxamide] | < 0.1 µM | 0.1 to 1 µM | < 0.1 µM | < 0.1 µM | 1 to 10 µM | A (A represents <100 nM) | 1 to 10 µM
18 | Cc1cn2cc(NC(=O)c3ccc(N4C[C@@H](C)N[C@@H](C)C4)c4ccnnc34)nc(C)c2n1 [Compound 172, N-{2,8-dimethylimidazo[1,2-a]pyrazin-6-yl}-5-[(3R,5S)-3,5-dimethylpiperazin-1-yl]cinnoline-8-carboxamide] | 0.1 to 1 µM | > 10 µM | < 0.1 µM | < 0.1 µM | > 10 µM | B (B represents 100-1000 nM) | 1 to 10 µM
19 | COCCOc1ccc2c(N3CCNCC3)ccc(C(=O)Nc3cc(F)c4nc(C)cn4c3)c2n1 [Compound 173, N-{8-fluoro-2-methylimidazo[1,2-a]pyridin-6-yl}-2-(2-methoxyethoxy)-5-(piperazin-1-yl)quinoline-8-carboxamide] | < 0.1 µM | > 10 µM | < 0.1 µM | < 0.1 µM | > 10 µM | B (B represents 100-1000 nM) | 1 to 10 µM
20 | COc1cc(NC(=O)c2ccc(N3CCNCC3)c3ccnnc23)cn2cc(C)nc12 [Compound 176, N-{8-methoxy-2-methylimidazo[1,2-a]pyridin-6-yl}-5-(piperazin-1-yl)cinnoline-8-carboxamide trifluoroacetate] | 0.1 to 1 µM | 1 to 10 µM | 0.1 to 1 µM | < 0.1 µM | > 10 µM | B (B represents 100-1000 nM) | > 10 µM
21 | Cc1cn2cc(NC(=O)c3ccc(N4CCNCC4)c4ccnnc34)[nH]c(=O)c2n1 [Compound 177, N-{2-methyl-8-oxo-7H-imidazo[1,2-a]pyrazin-6-yl}-5-(piperazin-1-yl)cinnoline-8-carboxamide trifluoroacetic acid salt] | 0.1 to 1 µM | 0.1 to 1 µM | 0.1 to 1 µM | 0.1 to 1 µM | 0.1 to 1 µM | B (B represents 100-1000 nM) | 0.1 to 1 µM
22 | Cc1nc(NC(=O)c2ccc(N3CCNCC3)c3ccnnc23)cc2cn(C)nc12 [Compound 178, N-{2,7-dimethylpyrazolo[3,4-c]pyridin-5-yl}-5-(piperazin-1-yl)cinnoline-8-carboxamide] | 0.1 to 1 µM | 1 to 10 µM | 0.1 to 1 µM | < 0.1 µM | > 10 µM | C (C represents 1000-9999 nM) | > 10 µM
